Target: T1, human mAChR M4 (Homo sapiens, UniProt P08173)
T1 construct: expressed in transfected cells; host or cells: CHO-K1 (ATCC), stably co-expressing chimeric G protein Gqi5
T1 sequence (P08173 1-479): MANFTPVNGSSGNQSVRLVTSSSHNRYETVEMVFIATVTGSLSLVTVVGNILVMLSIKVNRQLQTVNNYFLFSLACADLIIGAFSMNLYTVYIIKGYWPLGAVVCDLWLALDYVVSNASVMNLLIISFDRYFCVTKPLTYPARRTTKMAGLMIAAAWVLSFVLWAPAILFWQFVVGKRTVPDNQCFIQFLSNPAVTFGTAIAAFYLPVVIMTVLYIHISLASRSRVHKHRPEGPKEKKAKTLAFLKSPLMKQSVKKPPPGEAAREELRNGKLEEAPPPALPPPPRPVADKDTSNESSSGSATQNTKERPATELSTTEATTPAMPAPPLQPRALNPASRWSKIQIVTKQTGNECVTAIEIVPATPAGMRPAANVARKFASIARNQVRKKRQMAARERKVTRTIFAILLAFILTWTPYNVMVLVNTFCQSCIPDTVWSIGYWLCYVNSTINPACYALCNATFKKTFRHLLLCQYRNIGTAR
Assay: mAChR M4 cell-based functional assay (calcium mobilization, EC80 acetylcholine), human M4
Settings: for IC50: M4/Gqi5/CHO-K1 cells, decrease of EC80 acetylcholine response; for Emin: human M4, % ACh maximum at 30 μM
Method: Human or rat M4 cDNA, along with the chimeric G protein Gqi5, were transfected into Chinese hamster ovary (CHO-K1) cells purchased from the American Type Culture Collection using Lipofectamine2000. M4/Gqi5/CHO cells were grown in Ham's F-12 medium containing 10% heat-inactivated fetal bovine serum (FBS), 20 mM HEPES, 500 μg/mL G418 sulfate, and 200 μg/mL Hygromycin B.
For high throughput measurement of agonist-evoked increases in intracellular calcium, CHO-K1 cells stably expressing muscarinic receptors were plated in growth medium lacking G418 and hygromycin at 15,000 cells/20 μL/well in Greiner 384-well black-walled, tissue culture (TC)-treated, clear-bottom plates (VWR). Cells were incubated overnight at 37° C. and 5% CO2. […] Compound master plates were formatted in a 10 point concentration-response curve (CRC) format (1:3 dilutions) in 100% DMSO with a starting concentration of 10 or 1 mM using a BRAVO liquid handler (Agilent). Test compound CRCs were then transferred to daughter plates (240 nL) using the Echo acoustic plate reformatter (Labcyte, Sunnyvale, CA) and then diluted into assay buffer (40 μL) to a 2× stock using a Thermo Fisher Combi (Thermo Fisher Scientific, Waltham, MA).
Calcium flux was measured using the Functional Drug Screening System (FDSS) 6000 or 7000 (Hamamatsu Corporation, Tokyo, Japan) as an increase in the fluorescent static ratio. Compounds were applied to cells (20 μL, 2×) using the automated system of the FDSS at 2 seconds into the protocol and the data were collected at 1 Hz. […] Agonist activity was analyzed as a concentration-dependent increase in calcium mobilization upon compound addition. Positive allosteric modulator activity was analyzed as a concentration-dependent increase in the EC20 acetylcholine response. Antagonist activity was analyzed as a concentration-dependent decrease in the EC80 acetylcholine response; for the purposes of the tables herein, an IC50 (inhibitory concentration 50) was calculated as a concentration-dependent decrease of the response elicited by an EC80 concentration of acetylcholine. Concentration-response curves were generated using a four-parameter logistical equation in XLFit curve fitting software (IDBS, Bridgewater, NJ) for Excel (Microsoft, Redmond, WA) or Prism (GraphPad Software, Inc., San Diego, CA) or the Dotmatics software platform (Dotmatics, Bishop's Stortford, UK).

IC50 (Table 9)	Emin (Table 9)	Human M4 Emin (Table 10)	IC50 (Table 10)	SMILES
4010 nM	7.39%			Cc1cnn(C)c1-c1ccc(OCC2C[C@@H]3CN(Cc4ccccc4F)C[C@@H]3C2)nn1 (stereo partly drawn) [Compound 87, (3aR,6aS)-5-[[6-(2,4-dimethylpyrazol-3-yl)pyridazin-3-yl]oxymethyl]-2-[(2-fluorophenyl)methyl]-3,3a,4,5,6,6a-hexahydro-1H-cyclopenta[c]pyrrole]
100 nM	3.21%			Fc1ccc(Cl)c(-c2ccc(O[C@@H]3C[C@@H]4CN(CC5CC6C=CC5C6)C[C@@H]4C3)nn2)c1 (stereo partly drawn) [Compound 53, (3aR,5r,6aS)-2-(5-bicyclo[2.2.1]hept-2-enylmethyl)-5-[6-(2-chloro-5-fluoro-phenyl)pyridazin-3-yl]oxy-3,3a,4,5,6,6a-hexahydro-1H-cyclopenta[c]pyrrole]
		5%	192 nM	CC(=O)Nc1ccc(-c2cnc(N[C@H]3C[C@@H]4CN(CCC(C)(C)C)C[C@@H]4C3)cn2)cc1 [Compound 156, N-[4-[5-[[(3aR,5s,6aS)-2-(3,3-dimethylbutyl)-3,3a,4,5,6,6a-hexahydro-1H-cyclopenta[c]pyrrol-5-yl]amino]pyrazin-2-yl]phenyl]acetamide]
		8%	1580 nM	Cc1nn(C)cc1-c1ccc(N[C@H]2C[C@@H]3CN(CC4CCOCC4)C[C@@H]3C2)nc1 [Compound 152, (3aR,5s,6aS)-N-[5-(1,3-dimethylpyrazol-4-yl)-2-pyridyl]-2-(tetrahydropyran-4-ylmethyl)-3,3a,4,5,6,6a-hexahydro-1H-cyclopenta[c]pyrrol-5-amine]
10 nM	3.11%			CCCC(C)CN1C[C@H]2C[C@H](Nc3ccc(-c4c(C)cnn4C)nn3)C[C@H]2C1 (stereo partly drawn) [Compound 19, (3aR,5s,6aS)-N-[6-(2,4-dimethylpyrazol-3-yl)pyridazin-3-yl]-2-(2-methylpentyl)-3,3a,4,5,6,6a-hexahydro-1H-cyclopenta[c]pyrrol-5-amine]
9870 nM	14.7%			Cc1nn(C)cc1-c1ccc(OCC2C[C@@H]3CN(Cc4ccccn4)C[C@@H]3C2)nn1 (stereo partly drawn) [Compound 103, (3aR,6aS)-5-[[6-(1,3-dimethylpyrazol-4-yl)pyridazin-3-yl]oxymethyl]-2-(2-pyridylmethyl)-3,3a,4,5,6,6a-hexahydro-1H-cyclopenta[c]pyrrole]
20.6 nM	3.25%			Cc1cccnc1CN1C[C@H]2CC(CCNc3ccc(-c4c(C)cnn4C)nn3)C[C@H]2C1 (stereo partly drawn) [Compound 124, N-[2-[(3aR,6aS)-2-[(3-methyl-2-pyridyl)methyl]-3,3a,4,5,6,6a-hexahydro-1H-cyclopenta[c]pyrrol-5-yl]ethyl]-6-(2,4-dimethylpyrazol-3-yl)pyridazin-3-amine]
		3%	0.8 nM	c1cc(N2CCCCC2)nnc1N[C@H]1C[C@@H]2CN(CC3CCOCC3)C[C@@H]2C1 [Compound 193, (3aR,5s,6aS)-N-[6-(1-piperidyl)pyridazin-3-yl]-2-(tetrahydropyran-4-ylmethyl)-3,3a,4,5,6,6a-hexahydro-1H-cyclopenta[c]pyrrol-5-amine]
1530 nM	6.78%			Cc1cccnc1CN1C[C@H]2CC(COc3ccc(-c4cn(C)nc4C)nn3)C[C@H]2C1 (stereo partly drawn) [Compound 104, (3aR,6aS)-5-[[6-(1,3-dimethylpyrazol-4-yl)pyridazin-3-yl]oxymethyl]-2-[(3-methyl-2-pyridyl)methyl]-3,3a,4,5,6,6a-hexahydro-1H-cyclopenta[c]pyrrole]
		3%	4.03 nM	Fc1ccc(Cl)c(-c2ccc(N[C@H]3C[C@@H]4CN(Cc5ccccn5)C[C@@H]4C3)nn2)c1 [Compound 160, (3aR,5s,6aS)-N-[6-(2-chloro-5-fluoro-phenyl)pyridazin-3-yl]-2-(2-pyridylmethyl)-3,3a,4,5,6,6a-hexahydro-1H-cyclopenta[c]pyrrol-5-amine]
		16%	21.3 nM	CC(C)(O)c1cccc(-c2ccc(N[C@H]3C[C@@H]4CN(CC5CCOCC5)C[C@@H]4C3)nn2)c1 [Compound 216, 2-[3-[6-[[(3aR,5s,6aS)-2-(tetrahydropyran-4-ylmethyl)-3,3a,4,5,6,6a-hexahydro-1H-cyclopenta[c]pyrrol-5-yl]amino]pyridazin-3-yl]phenyl]propan-2-ol]
301 nM	4.62%			CCCC(C)CN1C[C@H]2CC(COc3ccc(-c4cn(C)nc4C)nn3)C[C@H]2C1 (stereo partly drawn) [Compound 96, (3aR,6aS)-5-[[6-(1,3-dimethylpyrazol-4-yl)pyridazin-3-yl]oxymethyl]-2-(2-methylpentyl)-3,3a,4,5,6,6a-hexahydro-1H-cyclopenta[c]pyrrole]
		4%	127 nM	Cc1nn(C)cc1-c1ccc(N[C@H]2C[C@@H]3CN(CCC(C)(C)C)C[C@@H]3C2)nc1 [Compound 149, (3aR,5s,6aS)-2-(3,3-dimethylbutyl)-N-[5-(1,3-dimethylpyrazol-4-yl)-2-pyridyl]-3,3a,4,5,6,6a-hexahydro-1H-cyclopenta[c]pyrrol-5-amine]
408 nM	3.86%			Cc1cnn(C)c1-c1ccc(NC(=O)C2CC3CN(CC4CC5C=CC4C5)CC3C2)nn1 (centres unmarked) [Compound 77, 2-(5-bicyclo[2.2.1]hept-2-enylmethyl)-N-[6-(2,4-dimethylpyrazol-3-yl)pyridazin-3-yl]-3,3a,4,5,6,6a-hexahydro-1H-cyclopenta[c]pyrrole-5-carboxamide]
		3%	174 nM	Cc1noc(C)c1-c1ccc(O[C@H]2C[C@@H]3CN(CCC(C)(C)C)C[C@@H]3C2)nn1 [Compound 136, 4-[6-[[(3aR,5s,6aS)-2-(3,3-dimethylbutyl)-3,3a,4,5,6,6a-hexahydro-1H-cyclopenta[c]pyrrol-5-yl]oxy]pyridazin-3-yl]-3,5-dimethyl-isoxazole]
10 nM	3.53%			CC(C)(C)CCN1C[C@H]2C[C@H](Nc3ccc(-c4cc(F)ccc4Cl)nn3)C[C@H]2C1 [Compound 28, (3aR,5s,6aS)-N-[6-(2-chloro-5-fluoro-phenyl)pyridazin-3-yl]-2-(3,3-dimethylbutyl)-3,3a,4,5,6,6a-hexahydro-1H-cyclopenta[c]pyrrol-5-amine]
3070 nM	6.99%			Fc1ccc(Cl)c(-c2ccc(O[C@@H]3C[C@@H]4CN(CC5CCCOC5)C[C@@H]4C3)nn2)c1 (stereo partly drawn) [Compound 57, (3aR,5r,6aS)-5-[6-(2-chloro-5-fluoro-phenyl)pyridazin-3-yl]oxy-2-(tetrahydropyran-3-ylmethyl)-3,3a,4,5,6,6a-hexahydro-1H-cyclopenta[c]pyrrole]
1460 nM	6.11%			Cc1cccnc1CN1C[C@H]2C[C@@H](Oc3ccc(-c4cc(F)ccc4Cl)nn3)C[C@H]2C1 [Compound 58, (3aR,5r,6aS)-5-[6-(2-chloro-5-fluoro-phenyl)pyridazin-3-yl]oxy-2-[(3-methyl-2-pyridyl)methyl]-3,3a,4,5,6,6a-hexahydro-1H-cyclopenta[c]pyrrole]
0.7 nM	4.92%			Fc1ccc(Cl)c(-c2ccc(N[C@H]3C[C@@H]4CN(CC5CCOCC5)C[C@@H]4C3)nn2)c1 [Compound 32, (3aR,5s,6aS)-N-[6-(2-chloro-5-fluoro-phenyl)pyridazin-3-yl]-2-(tetrahydropyran-4-ylmethyl)-3,3a,4,5,6,6a-hexahydro-1H-cyclopenta[c]pyrrol-5-amine]

Source: patent US12577234B2, “Antagonists of the muscarinic acetylcholine receptor M4” (Vanderbilt University, priority 2017, dated 2026)
